For 43 compounds, IC50 and inhibition results are on record in ChEMBL document CHEMBL5321287, “Discovery, Synthesis, and Evaluation of Novel Dual Inhibitors of a Vascular Endothelial Growth Factor Receptor and Poly(ADP-Ribose) Polymerase for BRCA Wild-Type Breast Cancer Therapy” (J Med Chem, 2023).

The source made the active and inactive calls. The rule behind the calls is not given here.

The target in experiment [1] is Vascular endothelial growth factor receptor 2 (Homo sapiens, UniProt P35968). In words: Inhibition of VEGFR2 (unknown origin) by Z'-Lyte kinase assay.
Experiment [2] concerns the target T1, Poly [ADP-ribose] polymerase 1 (Homo sapiens, UniProt P09874). In words: Inhibition of PARP1 (unknown origin).
Experiment [3] deals with MCF7. In words: Antiproliferative activity against human MCF7 cells assessed as cell growth inhibition.
The test system of experiment [4] is MDA-MB-231. In words: Antiproliferative activity against human MDA-MB-231 cells assessed as cell growth inhibition.
In another experiment the test system is HUVEC. In words: cells. The conditions noted are these: Homo sapiens, 48 h.
Experiment [5] relates to MDA-MB-436. In words: cells. The conditions noted are these: Homo sapiens.
The target of experiment [6] is T1, Poly [ADP-ribose] polymerase 1. The following applies: MDA-MB-231, dose 50.0 mg/kg, route po, time 14.0 day.
In experiment [7] the test system is MDA-MB-231. In words: cells. The following applies: Homo sapiens.
The test system of experiment [8] is HCC1937. In words: cells. The following applies: Homo sapiens.
The test system of experiment [9] is MCF7. In words: cells. The conditions noted are these: Homo sapiens.
Experiment [10] concerns HCC1937. In words: Antiproliferative activity against human HCC1937 cells assessed as cell growth inhibition.
The test system of experiment [11] is MDA-MB-436. In words: Antiproliferative activity against human MDA-MB-436 cells assessed as cell growth inhibition.

T1 sequence (P09874 whole entry): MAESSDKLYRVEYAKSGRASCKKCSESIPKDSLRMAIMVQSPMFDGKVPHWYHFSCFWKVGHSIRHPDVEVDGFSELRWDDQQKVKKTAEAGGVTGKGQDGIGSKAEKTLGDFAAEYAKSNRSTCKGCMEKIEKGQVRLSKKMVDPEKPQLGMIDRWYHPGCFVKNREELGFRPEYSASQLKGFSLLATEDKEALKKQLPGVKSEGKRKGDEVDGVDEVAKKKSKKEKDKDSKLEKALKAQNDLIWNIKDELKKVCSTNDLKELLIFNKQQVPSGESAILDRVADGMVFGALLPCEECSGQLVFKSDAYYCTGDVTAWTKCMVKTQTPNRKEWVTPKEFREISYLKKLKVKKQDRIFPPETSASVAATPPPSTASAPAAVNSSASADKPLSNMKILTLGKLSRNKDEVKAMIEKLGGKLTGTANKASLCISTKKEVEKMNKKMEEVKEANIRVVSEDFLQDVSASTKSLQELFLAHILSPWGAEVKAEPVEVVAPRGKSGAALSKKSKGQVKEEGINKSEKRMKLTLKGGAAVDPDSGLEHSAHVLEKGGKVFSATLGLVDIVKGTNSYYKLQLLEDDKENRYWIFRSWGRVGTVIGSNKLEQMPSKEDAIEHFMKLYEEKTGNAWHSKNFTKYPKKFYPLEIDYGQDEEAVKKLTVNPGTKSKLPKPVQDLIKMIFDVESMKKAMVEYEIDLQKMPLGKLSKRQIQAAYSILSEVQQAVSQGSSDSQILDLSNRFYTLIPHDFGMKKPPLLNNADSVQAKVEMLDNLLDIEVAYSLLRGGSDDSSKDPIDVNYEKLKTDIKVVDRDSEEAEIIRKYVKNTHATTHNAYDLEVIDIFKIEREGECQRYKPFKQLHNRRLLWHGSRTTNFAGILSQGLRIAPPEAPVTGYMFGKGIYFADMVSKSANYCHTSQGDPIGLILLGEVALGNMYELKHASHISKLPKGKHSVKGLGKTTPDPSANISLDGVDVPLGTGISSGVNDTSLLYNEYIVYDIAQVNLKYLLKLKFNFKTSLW
Vascular endothelial growth factor receptor 2, sequence (P35968 whole entry): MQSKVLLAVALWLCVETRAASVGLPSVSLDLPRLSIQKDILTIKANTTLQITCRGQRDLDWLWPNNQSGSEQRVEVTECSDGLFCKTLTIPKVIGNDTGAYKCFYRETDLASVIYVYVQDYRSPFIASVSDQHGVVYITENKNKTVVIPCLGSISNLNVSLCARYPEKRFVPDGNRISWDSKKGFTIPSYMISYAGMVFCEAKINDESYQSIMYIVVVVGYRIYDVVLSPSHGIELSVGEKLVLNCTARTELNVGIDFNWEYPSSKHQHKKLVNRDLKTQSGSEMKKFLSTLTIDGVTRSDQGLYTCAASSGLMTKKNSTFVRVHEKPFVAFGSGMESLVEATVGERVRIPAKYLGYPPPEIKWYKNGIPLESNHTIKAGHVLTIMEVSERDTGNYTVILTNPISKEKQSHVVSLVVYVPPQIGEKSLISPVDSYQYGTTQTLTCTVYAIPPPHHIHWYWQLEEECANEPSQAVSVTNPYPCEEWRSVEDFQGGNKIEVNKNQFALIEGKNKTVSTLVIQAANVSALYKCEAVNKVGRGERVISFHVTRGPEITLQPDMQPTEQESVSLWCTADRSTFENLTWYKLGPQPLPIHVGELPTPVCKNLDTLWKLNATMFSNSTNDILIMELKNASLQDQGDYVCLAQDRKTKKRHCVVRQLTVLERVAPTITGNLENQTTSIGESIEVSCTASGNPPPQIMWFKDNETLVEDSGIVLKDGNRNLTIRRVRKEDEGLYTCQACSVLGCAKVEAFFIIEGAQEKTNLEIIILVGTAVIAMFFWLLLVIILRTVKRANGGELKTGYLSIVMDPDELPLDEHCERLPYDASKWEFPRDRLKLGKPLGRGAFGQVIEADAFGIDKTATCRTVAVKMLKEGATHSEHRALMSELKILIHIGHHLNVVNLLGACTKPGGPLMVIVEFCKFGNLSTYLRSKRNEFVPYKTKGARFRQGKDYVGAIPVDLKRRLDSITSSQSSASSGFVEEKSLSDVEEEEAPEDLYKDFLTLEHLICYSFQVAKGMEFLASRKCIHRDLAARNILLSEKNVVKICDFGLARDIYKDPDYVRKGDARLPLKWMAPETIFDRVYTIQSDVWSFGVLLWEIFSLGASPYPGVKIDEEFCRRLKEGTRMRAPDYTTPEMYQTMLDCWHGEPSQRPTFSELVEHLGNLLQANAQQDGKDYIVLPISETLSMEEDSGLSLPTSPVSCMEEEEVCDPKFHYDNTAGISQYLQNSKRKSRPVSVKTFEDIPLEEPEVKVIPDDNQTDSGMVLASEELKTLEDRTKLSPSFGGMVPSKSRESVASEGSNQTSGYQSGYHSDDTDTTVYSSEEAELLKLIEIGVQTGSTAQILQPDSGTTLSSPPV

Regarding `CC(C)c1ccc(N(C)c2ccnc(Nc3ccc(-c4nc5cc(F)c(F)cc5[nH]4)cc3)n2)cc1`, the IC50 (usually the concentration that gives 50% inhibition) in experiment [1] was found to be 501 nM.

Compound `CN1CCN(C2CCN(c3ccnc(Nc4ccc(-c5nc6c(C(N)=O)cccc6[nH]5)cc4)n3)CC2)CC1` displayed an IC50 in experiment [1] above 10000 nM.

`COc1cc(Nc2nccc(N(C)c3ccc4c(C)n(C)nc4c3)n2)ccc1-c1nc2c(C(N)=O)cccc2[nH]1`: the IC50 in experiment [1] worked out at 169 nM.

Turning to `CN(c1ccc(F)cc1)c1ccnc(Nc2ccc(-c3nc4c(C(N)=O)cccc4[nH]3)cc2)n1`, the half-maximal inhibitory concentration (IC50) in [2] came to 130 nM.

On to `Cc1ccc(Nc2nccc(N(C)c3ccc4c(C)n(C)nc4c3)n2)cc1-c1nc2ccccc2[nH]1`, for which the IC50 in experiment [1] amounted to 171 nM.

The compound `Cc1c2ccc(N(C)c3ccnc(Nc4ccc(-c5nc6cc(F)c(F)cc6[nH]5)c(C(F)(F)F)c4)n3)cc2nn1C` returned a 50% inhibitory concentration (IC50) in [2] of 673 nM.

Take `Cc1c2ccc(N(C)c3ccnc(Nc4ccc(-c5nc6c(C(N)=O)cccc6[nH]5)c(C(F)(F)F)c4)n3)cc2nn1C`: the half-inhibitory concentration (IC50) in experiment [2] is 164 nM; in the experiment on MCF7 [3] it was above 10000 nM; in experiment [1] it was 267 nM.

For `Cc1c2ccc(N(C)c3ccnc(Nc4ccc(-c5nc6c(C(N)=O)cccc6[nH]5)cc4)n3)cc2nn1C`, in [2], the IC50 turned out to be 95.7 nM.

In the case of `Cc1cc(N(C)c2ccc3c(C)n(C)nc3c2)nc(Nc2ccc(-c3nc4c(C(N)=O)cccc4[nH]3)cc2)n1`, the IC50 was 85.2 nM in experiment [2], above 10000 nM with MDA-MB-231 [4], above 10000 nM with MCF7 [3] and above 10000 nM in experiment [1].

`COc1cc(Nc2nccc(N(C)c3ccc4c(C)n(C)nc4c3)n2)ccc1-c1nc2cc(F)c(F)cc2[nH]1` yielded an IC50 in [1] of 165 nM.

`NC(=O)c1cccc2[nH]c(-c3ccc(Nc4nccc(N5CCN(C(=O)c6ccccc6)CC5)n4)cc3)nc12`: the 50% inhibitory concentration (IC50) is 128 nM in experiment [2], above 10000 nM in the experiment on MDA-MB-231 [4], above 10000 nM in the experiment on MCF7 [3] and above 10000 nM in experiment [1].

On to `NC(=O)c1cccc2[nH]c(NC(=O)c3ccc(Nc4nccc(N5CCN(C(=O)c6ccccc6)CC5)n4)cc3)nc12`, for which inhibition in [2] was half-maximal at 194 nM (IC50).

For `Cc1c2ccc(N(C)c3ccnc(Nc4ccc(-c5ccc(-c6nc7c(C(N)=O)cccc7[nH]6)cc5)cc4)n3)cc2nn1C`, the IC50 in experiment [2] is 469 nM; with MDA-MB-231 [4], above 10000 nM; in the experiment with MCF7 [3], above 10000 nM; in [1], 308 nM.

Consider `Cc1c2ccc(N(C)c3ccnc(Nc4ccc(-c5nc6ccccc6[nH]5)c(Cl)c4)n3)cc2nn1C`, for which the IC50 in experiment [2] was above 10000 nM; in the experiment on MDA-MB-231 [4] it was above 10000 nM; in the experiment with MCF7 [3], above 10000 nM; in experiment [1], 188 nM.

With `COc1cc(N(C)c2ccc3c(C)n(C)nc3c2)nc(Nc2ccc(-c3nc4c(C(N)=O)cccc4[nH]3)cc2)n1`, the IC50 was 79.6 nM in experiment [2], above 10000 nM in the experiment on MDA-MB-231 [4], above 10000 nM in the experiment with MCF7 [3] and above 10000 nM in [1].

On to `Cc1c2ccc(N(C)c3ccnc(Nc4cccc(-c5nc6c(C(N)=O)cccc6[nH]5)c4)n3)cc2nn1C`, for which inhibition in [2] was half-maximal at 82.7 nM (IC50).

As to `CN(c1ccc2ncccc2c1)c1ccnc(Nc2ccc(-c3nc4c(C(N)=O)cccc4[nH]3)cc2)n1`, inhibition in experiment [1] was half-maximal at 659 nM (IC50).

Compound `CN(c1ccnc(Nc2ccc(-c3nc4c(C(N)=O)cccc4[nH]3)cc2)n1)c1cc(C(C)(C)C)n(C)n1` showed an IC50 in experiment [1] above 10000 nM.

Take `CS(=O)(=O)N1CCN(c2ccnc(Nc3ccc(-c4nc5c(C(N)=O)cccc5[nH]4)cc3)n2)CC1`: the concentration for half-maximal inhibition (IC50) in [1] was above 10000 nM.

With `Cc1c2ccc(N(C)c3ccnc(Nc4cccc(-c5nc6cc(F)c(F)cc6[nH]5)c4)n3)cc2nn1C`, the IC50 was 647 nM in experiment [2], 2300 nM in the experiment on MDA-MB-231 [4], 7200 nM in the experiment with MCF7 [3] and 190 nM in experiment [1].

In the case of `Cc1c2ccc(N(C)c3ccnc(Nc4ccc(C(=O)Nc5nc6c(C(N)=O)cccc6[nH]5)c(C(F)(F)F)c4)n3)cc2nn1C`, half-maximal inhibition in experiment [2] (IC50) was put at 345 nM.

Turning to `Cc1c2ccc(N(C)c3ccnc(Nc4ccc(-c5nc6ccccc6[nH]5)c(C(F)(F)F)c4)n3)cc2nn1C`, the IC50 in experiment [2] was above 10000 nM; in the experiment with MDA-MB-231 [4], above 10000 nM; in the experiment on MCF7 [3] it was above 10000 nM; in experiment [1], 213 nM.

Consider `Cc1c2ccc(N(C)c3ccnc(Nc4ccc(-c5nc6c(C(N)=O)cccc6[nH]5)cc4F)n3)cc2nn1C`, for which the IC50 was 118 nM in [2], 9340 nM in the experiment on MDA-MB-231 [4], above 10000 nM in the experiment with MCF7 [3] and 254 nM in experiment [1].

On to `CN(c1ccc(N2CCOCC2)c(F)c1)c1ccnc(Nc2ccc(C(=O)Nc3nc4ccccc4[nH]3)cc2)n1`, for which the IC50 in experiment [2] was above 10000 nM; in the experiment with MDA-MB-231 [4], above 10000 nM; with MCF7 [3] it was above 10000 nM; in experiment [1], 728 nM.

In turn, `Cc1c2ccc(N(C)c3cc(C(F)(F)F)nc(Nc4ccc(C(=O)Nc5nc6c(C(N)=O)cccc6[nH]5)cc4)n3)cc2nn1C` showed an IC50 in [1] above 10000 nM.

In turn, `CN(c1ccc(S(C)(=O)=O)cc1)c1ccnc(Nc2ccc(-c3nc4c(C(N)=O)cccc4[nH]3)cc2)n1` gave an IC50 in experiment [1] above 10000 nM.

As to `CN(c1ccc(Cl)cc1)c1ccnc(Nc2ccc(-c3nc4cc(F)c(F)cc4[nH]3)cc2)n1`, the concentration for half-maximal inhibition (IC50) in experiment [2] was 661 nM; with MDA-MB-231 [4], above 10000 nM; in the experiment with MCF7 [3] it was above 10000 nM; in experiment [1], 427 nM.

Regarding `Cc1cc(Nc2nccc(N(C)c3ccc4c(C)n(C)nc4c3)n2)cnc1-c1nc2c(C(N)=O)cccc2[nH]1`, the half-maximal inhibitory concentration (IC50) was 150 nM in [2], 8910 nM in the experiment with MDA-MB-231 [4], above 10000 nM in the experiment with MCF7 [3] and 235 nM in experiment [1].

In [1], `Cc1c2ccc(N(C)c3nc(Nc4ccc(-c5nc6c(C(N)=O)cccc6[nH]5)cc4)nc4ccsc34)cc2nn1C` had an IC50 above 10000 nM.

On to `Cc1c2ccc(N(C)c3ccnc(Nc4ccc(-c5nc6c(C(N)=O)cccc6[nH]5)c(Cl)c4)n3)cc2nn1C`, for which the IC50 in experiment [2] was 142 nM.

For the compound `COc1ccc(-c2nc3c(C(N)=O)cccc3[nH]2)cc1Nc1nccc(N(C)c2ccc3c(C)n(C)nc3c2)n1`, the concentration for half-maximal inhibition (IC50) in [2] was 39.4 nM; with MDA-MB-231 [4], above 10000 nM; in the experiment with MCF7 [3] it was above 10000 nM; in experiment [1] it was 266 nM.

Regarding `Cc1cnc(Nc2ccc(-c3nc4c(C(N)=O)cccc4[nH]3)cc2)nc1N(C)c1ccc2c(C)n(C)nc2c1`, the half-inhibitory concentration (IC50) in [1] was above 10000 nM.

For the compound `CN(c1ccc(Cl)cc1)c1ccnc(Nc2ccc(C(=O)Nc3nc4c(C(N)=O)cccc4[nH]3)cc2)n1`, in experiment [2], the IC50 is 137 nM.

In turn, `NC(=O)c1cccc2[nH]c(-c3ccc(Nc4nccc(N5CCN(c6ccc(C(F)(F)F)cn6)CC5)n4)cc3)nc12` came in with a concentration for half-maximal inhibition (IC50) in [2] of 98.2 nM.

The compound `Cc1c2ccc(N(C)c3ccnc(Nc4ccc(-c5nc6cc(F)c(F)cc6[nH]5)c(Cl)c4)n3)cc2nn1C` gave a 50% inhibitory concentration (IC50) in experiment [2] of 759 nM.

Regarding `Cc1c2ccc(N(C)c3ccnc(Nc4ccc(C(=O)Nc5nc6c(C(N)=O)cccc6[nH]5)c(Cl)c4)n3)cc2nn1C`, in experiment [2], the concentration for half-maximal inhibition (IC50) was found to be 166 nM.

In turn, `CC(C)c1ccc(N(C)c2ccnc(Nc3ccc(-c4nc5c(C(N)=O)cccc5[nH]4)cc3)n2)cc1` returned a concentration for half-maximal inhibition (IC50) in experiment [2] of 89.7 nM.

With `Cc1ccc(Nc2nccc(N(C)c3ccc4c(C)n(C)nc4c3)n2)cc1-c1nc2cc(F)c(F)cc2[nH]1`, the midpoint of inhibition in [2], the IC50, lay at 682 nM.

In [1], `Cc1c2ccc(N(C)c3ccnc(Nc4ccc(C(=O)Nc5nc6c(C(N)=O)cccc6[nH]5)cc4)n3)cc2nn1C` yielded a concentration for half-maximal inhibition (IC50) of 260 nM.

In experiment [2], `Cc1c2ccc(N(C)c3ccnc(Nc4cc(F)c(-c5nc6c(C(N)=O)cccc6[nH]5)c(F)c4)n3)cc2nn1C` registered a half-inhibitory concentration (IC50) of 342 nM.

On to `COc1ccc(-c2nc3cc(F)c(F)cc3[nH]2)cc1Nc1nccc(N(C)c2ccc3c(C)n(C)nc3c2)n1`, for which, in experiment [1], the IC50 amounted to 200 nM.

With `O=C(c1cc(Cc2n[nH]c(=O)c3ccccc23)ccc1F)N1CCN(C(=O)C2CC2)CC1` [OLAPARIB], the concentration for half-maximal inhibition (IC50) in the experiment with HUVEC was 4600 nM; in the experiment on MDA-MB-436 [5], above 10000 nM; in the experiment on MDA-MB-231 [4], above 10000 nM; with MCF7 [3], above 10000 nM; with MDA-MB-231 [7] it was above 10000 nM; in the experiment on HCC1937 [8], above 10000 nM. Further, the half-maximal inhibitory concentration (IC50) was above 10000 nM with MCF7 [9], 6510 nM in the experiment on HCC1937 [10] and 9000 nM in the experiment with MDA-MB-436 [11]. In addition, in [6], the inhibition entry was “Active”.

Turning to `CN(c1ccc(N2CCOCC2)cc1)c1ccnc(Nc2ccc(-c3nc4c(C(N)=O)cccc4[nH]3)cc2)n1`, the IC50 is 87 nM in experiment [2], 9720 nM with MDA-MB-231 [4], 8930 nM in the experiment on MCF7 [3] and above 10000 nM in [1].
